According to patent publication US20070259962A1, “Use of N-Arylhydrazine Derivatives for Combating Pests in and on Animals” (priority 2003, published 2007):

Assays:
Stomoxys calcitrans = test: contact activity via glass contact, stable fly; settings: rate 10 ppm
Description: (§1) 1. Screening method to test contact activity against stable fly, yellowfever mosquito, house mosquito, malaria mosquito, cat flea, and brown dog tick via glass contact
(§2) Glass vials (20 ml scintillation vials) were treated with 0.5 ml of a solution of active ingredient in acetone. Each vial was rolled uncapped for ca. 10 minutes to allow the a.i. to completely coat the vial and to allow for full drying of the acetone. Insects or ticks were placed into each vial.
(§3) Each test was replicated at least 3 times.

Culex quinquefasciatus [1] = test: contact activity via water treatment, southern house mosquito larvae; settings: house mosquito larvae (4th-instars), rate 10 ppm
Description: (§4) 2. Screening method to test contact activity against yellowfever mosquito, southern house mosquito, and malaria mosquito larvae via water treatment
(§5) Well plates were used as test arenas. The active ingredient was dissolved in acetone and diluted with water to obtain the concentrations needed. The final solutions containing appr. 1% acetone were placed into each well. Approximately 10 mosquito larvae (4th-instars) in 1 ml water were added to each well. Larvae were fed one drop of liver powder each day. The dishes were covered and maintained at 22° C. Mortality was recorded daily and dead larvae and live or dead pupae were removed daily. At the end of the test remaining live larvae were recorded and percent mortality was calculated.
as §3

Aedes aegypti [2] = test: contact activity via water treatment, yellowfever mosquito larvae; settings: yellowfever mosquito larvae (4th-instars), rate 10 ppm
Description: as §4, §5, §3

Anopheles albimanus [3] = test: contact activity via glass contact, malaria mosquito; settings: rate 1 ppm
Description: as §1, §2, §3

Anopheles albimanus [4] = test: contact activity via water treatment, malaria mosquito larvae; settings: malaria mosquito larvae (4th-instars), rate 1.0 ppm
Description: as §4, §5, §3

Culex quinquefasciatus [5] = test: contact activity via glass contact, house mosquito; settings: rate 0.5 ppm
Description: as §1, §2, §3

Aedes aegypti [6] = test: contact activity via glass contact, yellowfever mosquito; settings: rate 10 ppm
Description: as §1, §2, §3

Ctenocephalides felis = test: contact activity via glass contact, cat flea; settings: rate 100 ppm
Description: as §1, §2, §3

CCN/C(=N\Nc1c(Cl)cc(C(F)(F)F)cc1Cl)C1(C)CC1(Cl)Cl (stereo not drawn) [1-2, N-Ethyl-2,2-dichloro-1-methylcyclopropane-carboxamide-2-(2,6-dichloro-α,α,α-trifluoro-p-tolyl)hydrazone]
Days or Hours to achieve 100% mortality (Stomoxys calcitrans): 4 h | Days or Hours to achieve 100% mortality (Culex quinquefasciatus [1]): 1 days | Days or Hours to achieve 100% mortality (Aedes aegypti [2]): 2 days | Days or Hours to achieve 100% mortality (Anopheles albimanus [3]): 1 days | Days or Hours to achieve 100% mortality (Anopheles albimanus [4]): 1 days | Days or Hours to achieve 100% mortality (Culex quinquefasciatus [5]): 4 h | Days or Hours to achieve 100% mortality (Aedes aegypti [6]): 4 h | Days or Hours to achieve 100% mortality (Ctenocephalides felis): 2 days

CCN/C(=N\Nc1c(Cl)cc(C(F)(F)F)cc1Cl)C(C)(C)C [I-1, N-ethyl-2,2-dimethylpropionamide-2-(2,6-dichloro-α,α,α-trifluoro-p-tolyl)-hydrazone]
Days or Hours to achieve 100% mortality (Stomoxys calcitrans): 4 h | Days or Hours to achieve 100% mortality (Culex quinquefasciatus [1]): 1 days | Days or Hours to achieve 100% mortality (Aedes aegypti [2]): 2 days | Days or Hours to achieve 100% mortality (Anopheles albimanus [3]): 1 days | Days or Hours to achieve 100% mortality (Anopheles albimanus [4]): 1 days | Days or Hours to achieve 100% mortality (Culex quinquefasciatus [5]): 4 h | Days or Hours to achieve 100% mortality (Aedes aegypti [6]): 4 h | Days or Hours to achieve 100% mortality (Ctenocephalides felis): 2 days
